Measured values from ChEMBL document CHEMBL4145450, “Colchicine prodrugs and codrugs: Chemistry and bioactivities” (Eur J Med Chem, 2018).

Test: Displacement of [125I]-ASOR from asialoglycoprotein receptor in mouse parenchymal liver cells after 2 hrs

`COc1cc2c(c(OC)c1OC)-c1ccc(OC)c(=O)cc1[C@@H](NC(=O)CCSSCCC(=O)NC(CCCCNC(=O)[C@@H](CCCCNC(=O)CCCCO[C@@H]1O[C@H](CO)[C@H](O)[C@H](O)[C@H]1NC(C)=O)NC(=O)CCCCO[C@@H]1O[C@H](CO)[C@H](O)[C@H](O)[C@H]1NC(C)=O)C(=O)O)CC2` (stereo partly specified) gave a Ki of 4.5 nM.
